Measured values reported in patent US7728043B2, “Methods for treatment of beta-amyloid protein-induced ocular disease” (priority 1999, dated 2010).
Values belong to the compound of their own block, whether it stands above or below them.

Assays:
PC12 cells = test: MTT reduction assay, βA peptide-induced toxicity, PC12 cells; type: cell-based, rat; settings: for Protection of PC12 cells from βA peptide insults (control study): even at 200 μg/ml, βA peptide(25-35) and βA peptide(1-42)
Method: (§1) The degree of βA insult was measured by 3-[4,5-dimethylthiazol-2-yl]-2,5-diphenyltetrazolium bromide (MTT) reduction assay. […] The detection of cell growth or cell death can be determined by observing the conversion of MTT to the colored product, MTT formazan, the concentration of which can be measured […] at 550 nm.
(§2) Cells were incubated in MTT solution (5 mg/ml) at 37° C. for 2 hours. During this time, cells were observed under a microscope every 15 min. Cells were incubated in Lysing buffer (100 μl) overnight at 37° C. Colorimetric determination of MTT reduction was made at 550 nm.
(§3) PC12 rat pheochromocytoma and IMR32 human neuroblastoma cells were obtained from the American Type Culture Collection (ATCC). HUVEC normal umbilical human vein endothelial cells were obtained from Clonetics (San Diego, Calif.). Cells were routinely cultured on a tissue culture plate (Corning, N.Y., N.Y.). PC12 cells were grown in high glucose Dulbecco's Modified Eagle Medium (DMEM), 10% horse serum, 5% fetal calf serum, and 1% penicillin/streptomycin. IMR32 cells were grown in 90% DMEM and 10% fetal calf serum with 1% penicillin/streptomycin. HUVEC cells were grown in EGM-2 Bullet Kit (Clonetics, San Diego, Calif.).
PC12 cells were cultured routinely on polystyrene-coated Corning tissue culture plates. […] The 96-well plates were coated with rat tail collagen (Boehringer Mannheim) in order to promote uniform PC12 cell attachment and growth.

IMR32 cells = test: MTT reduction assay, βA peptide-induced toxicity, IMR32 cells; type: cell-based, human
Method: as §1, §2, §3

HUVEC cells = test: MTT reduction assay, βA peptide-induced toxicity, HUVEC cells; type: cell-based, human
Method: as §1, §2, §3

[1] = Antioxidant assay, scavenging of DPPH free radicals; settings: for Antioxidant IC50: Table 2, synthesized curcuminoids, DPPH
Method: Kim et al., Neurosci Lett 303, 57 (2001) and Barik et al., Free Radic Biol Med 39, 811 (2005).
Using an antioxidant assay, the antioxidant potency of the compounds of the invention was evaluated. 1,1-Diphenyl-2-picrylhydrazyl (DPPH) is known to generate stable free radicals in aqueous and ethanolic solutions. The ability of the compounds of the invention to scavenge these free radicals was measured by observing the optical density change of DPPH radicals at 515 nm. Kim et al., Neurosci Lett 303, 57 (2001) and Barik et al., Free Radic Biol Med 39, 811 (2005).
The samples were prepared in various concentrations (200, 20, 2.0, and 0.2 μg/ml) by serial dilution of a stock solution (5 mg/ml) and were tested by the following procedure. Reaction mixtures containing test compounds (dissolved in DMSO) and 300 μM DPPH ethanolic solution in 96-well microtiter plates were incubated at 37° C. for 30 min. and absorbance was measured at 515 nm. Percent inhibition by sample treatment was determined by comparison with a DMSO-treated […] control group. IC50 values were determined from percent inhibition by sample. IC50 values denote the concentration of the tested compound that was required to scavenge 50% of the DPPH free radicals.

[2] = system: cells treated with βA peptide; test: Protection of cells from βA peptide insult, statements in words (MTT assay, cells not singled out); type: cell-based; settings: MTT reduction assay; PC12, IMR32, HUVEC cells where named in the sentence
Method: as §1, §2

[3] = Table 3, ginger-derived natural product compounds
[4] = Table 2, synthesized curcuminoids

Compound: CCC/C=C/C(=O)CCc1ccc(O)c(OC)c1 [Compound 11]
Anti-βA peptide(1-42) ED50 PC12 (PC12 cells; [3]): 12 mg/L
Anti-βA peptide(25-35) ED50 PC12 (PC12 cells; [3]): 15 mg/L
Anti-βA peptide(25-35) ED50 IMR32 (IMR32 cells; [3]): 15 mg/L
Anti-βA peptide(1-42) ED50 HUVEC (HUVEC cells; [3]): 20 mg/L
Anti-βA peptide(25-35) ED50 HUVEC (HUVEC cells; [3]): 20 mg/L
Antioxidant activity (DPPH free radical scavenging), in words ([1]; optical density change of DPPH radicals at 515 nm): None of these compounds exhibited significant antioxidant activity
Protection of cells from βA peptide-induced toxicity, in words [2]: effectively protected

Compound: CC(C)(C)[C@]1(O)CC2OC(=O)CC23C(=O)OC2OC(=O)[C@H](O)C231 (single isomer, unassigned; (-)) [(−)-Bilobalide, reference compound]
Anti-βA peptide(1-42) ED50 PC12 (PC12 cells; Table 4, ginkgo compounds): toxic
Anti-βA peptide(25-35) ED50 PC12 (PC12 cells; Table 4, ginkgo compounds): toxic
Anti-βA peptide(1-42) ED50 IMR32 (IMR32 cells; Table 4, ginkgo compounds): toxic
Anti-βA peptide(25-35) ED50 IMR32 (IMR32 cells; Table 4, ginkgo compounds): toxic
Anti-βA peptide(1-42) ED50 HUVEC (HUVEC cells; Table 4, ginkgo compounds): toxic
Anti-βA peptide(25-35) ED50 HUVEC (HUVEC cells; Table 4, ginkgo compounds): toxic
Protection of cells from βA peptide-induced toxicity, in words [2]: do not possess biological activity

Antioxidant IC50 [1]: >200 mg/L
Compound: O=C(CCc1ccccc1)CC(=O)CCc1ccc(O)cc1 [Compound 7]
Anti-βA peptide(1-42) ED50 PC12 (PC12 cells; [4]): toxic
Anti-βA peptide(25-35) ED50 PC12 (PC12 cells; [4]): toxic
Anti-βA peptide(1-42) ED50 IMR32 (IMR32 cells; [4]): toxic
Anti-βA peptide(25-35) ED50 IMR32 (IMR32 cells; [4]): toxic
Protection of cells from βA peptide-induced toxicity, in words [2]: cytotoxic

Compound: Cc1c(C)c2c(c(C)c1O)CCC(C)(CCCC(C)CCCC(C)CCCC(C)C)O2 (stereo not drawn) [vitamin E, reference compound]
Protection of PC12 cells from βA peptide insults (control study) (PC12 cells): did not protect

Compound: CC1=C(/C=C/C(C)=C/C=C/C(C)=C/C=C/C=C(C)/C=C/C=C(C)/C=C/C2=C(C)CCCC2(C)C)C(C)(C)CCC1 [β-carotene, reference compound]
Protection of PC12 cells from βA peptide insults (control study) (PC12 cells): did not protect

Compound: CCCCCCCCCCC(=O)CCc1ccc(O)c(OC)c1 [Compound 45, [9]-dihydroshogaol]
Protection of cells from βA peptide-induced toxicity, in words [2]: effectively protected

Compound: CCCCCCCCC=CC(=O)CCc1ccc(O)cc1 [Compound 50, [9]-demethoxyshogaol]
Protection of cells from βA peptide-induced toxicity, in words [2]: effectively protected

Compound: βA peptide (1-42): beta-amyloid peptide 1-42 used as the toxic insult [reference compound]
ED50 of βA peptide toxicity to PC12 cells (PC12 cells; peptide alone, collagen-coated 96-well plates): 5.0 mg/L
ED50 of βA peptide toxicity to IMR32 cells (IMR32 cells; peptide alone): 6.0 mg/L

Antioxidant IC50 [1]: >200 mg/L
Compound: O=C(C=C(O)C=Cc1ccccc1)CCc1ccc(O)cc1 [Compound 8]
Anti-βA peptide(1-42) ED50 PC12 (PC12 cells; [4]): toxic
Anti-βA peptide(25-35) ED50 PC12 (PC12 cells; [4]): toxic
Anti-βA peptide(1-42) ED50 IMR32 (IMR32 cells; [4]): toxic
Anti-βA peptide(25-35) ED50 IMR32 (IMR32 cells; [4]): toxic
Protection of cells from βA peptide-induced toxicity, in words [2]: cytotoxic

Compound: CC1=C(/C=C/C(C)=C/C=C/C(C)=C/CO)C(C)(C)CCC1 [vitamin A, reference compound]
Protection of PC12 cells from βA peptide insults (control study) (PC12 cells): did not protect
